Experimental data reported in patent US20190144423A1, “AMIDE-SUBSTITUTED PYRIDINYLTRIAZOLE DERIVATIVES AND USES THEREOF” (BAYER PHARMA AKTIENGESELLSCHAFT, priority 2016, published 2019).
pIC50: −log10 of the molar value.

Tests used:
human V1a receptor = target: T1, human V1a receptor (Homo sapiens, UniProt P37288); experiment: Cellular in vitro assay for determining vasopressin receptor activity (V1a cell line, aequorin luminescence); type: cell-based; settings: Table 1A, compounds of the invention; for pIC50: CHO cell line transfected with human V1a receptor, antagonism of [Arg8]-vasopressin at EC50, read-out: IC50 hV1a; for ratio IC50 hV2/hV1a: selectivity ratio
T1 construct: expressed in transfected cells; host or cells: CHO K1 (ATCC), also stably transfected with a modified aequorin
Protocol: (§1) B-1. Cellular In Vitro Assay for Determining Vasopressin Receptor Activity
(§2) The identification of agonists and antagonists of the V1a and V2 vasopressin receptors from humans, rats and dogs as well as the quantification of the activity of the compounds of the invention is carried out using recombinant cell lines. These cell lines originally derive from a hamster's ovary epithelial cell (Chinese Hamster Ovary, CHO K1, ATCC: American Type Culture Collection, Manassas, Va. 20108, USA). The test cell lines constitutively express the human, rat or dog V1a or V2 receptors. In case of the Gαq-coupled V1a receptors, cells are also stably transfected with a modified form of the calcium-sensitive photoproteins aequorin (human and rat V1a) or obelin (dog V1a), which, after reconstitution with the cofactor coelenterazine, emit light when there are increases in free calcium concentrations [Rizzuto R, Simpson A W, Brini M, Pozzan T, Nature 358, 325-327 (1992); Illarionov B A, Bondar V S, Illarionova V A, Vysotski E S, Gene 153 (2), 273-274 (1995)]. The resulting vasopressin receptor cells react to stimulation of the recombinantly expressed V1a receptors by intracellular release of calcium ions, which can be quantified by the resulting photoprotein luminescence. The Gs-coupled V2 receptors are stably transfected into cell lines expressing the gene for firefly luciferase under control of a CRE-responsible promoter. Activation of V2 receptors induces the activation of the CRE-responsive promoter via cAMP increase, thereby inducing the expression of firefly luciferase. The light emitted by photoproteins of V1a cell lines as well as the light emitted by firefly luciferase of V2 cell lines corresponds to the activation or inhibition of the respective vasopressin receptor. The bioluminescence of the cell lines is detected using a suitable luminometer [Milligan G, Marshall F, Rees S, Trends in Pharmacological Sciences 17, 235-237 (1996)].
Vasopressin V1a Receptor Cell Lines:
On the day before the assay, the cells are plated out in culture medium (DMEM/F12, 2% FCS, 2 mM glutamine, 10 mM HEPES, 5 μg/ml coelenterazine) in 384-well microtiter plates and kept in a cell incubator (96% humidity, 5% v/v CO2, 37° C.). On the day of the assay, test compounds in various concentrations are placed for 10 minutes in the wells of the microtiter plate before the agonist [Arg^8]-vasopressin at EC50 concentration is added. The resulting light signal is measured immediately in a luminometer.
(§3) Table 1A below lists individual IC50 values for the compounds of the invention (including racemic mixtures as well as separated enantiomers) that were obtained from cell lines transfected with the human V1a or V2 receptor: […]

human V2 receptor = target: T2, human V2 receptor (Homo sapiens, UniProt P30518); experiment: Cellular in vitro assay for determining vasopressin receptor activity (V2 cell line, CRE-luciferase); type: cell-based; settings: CHO cell line transfected with human V2 receptor; antagonism of [Arg8]-vasopressin at EC50; Table 1A, compounds of the invention; read-out: IC50 hV2
T2 construct: expressed in transfected cells; host or cells: CHO K1 (ATCC) line expressing firefly luciferase under a CRE-responsive promoter
Protocol: as §1, §2
Vasopressin V2 Receptor Cell Lines:
On the day before the assay, the cells are plated out in culture medium (DMEM/F12, 2% FCS, 2 mM glutamine, 10 mM HEPES) in 384-well microtiter plates and kept in a cell incubator (96% humidity, 5% v/v CO2, 37° C.). On the day of the assay, test compounds in various concentrations and the agonist [Arg^s]-vasopressin at EC50 concentration are added together to the wells, and plates are incubated for 3 hours in a cell incubator. Upon addition of the cell lysis reagent Triton™ and the substrate luciferin, luminescence of firefly luciferase is measured in a luminometer.
as §3

T1 sequence (P37288 whole entry): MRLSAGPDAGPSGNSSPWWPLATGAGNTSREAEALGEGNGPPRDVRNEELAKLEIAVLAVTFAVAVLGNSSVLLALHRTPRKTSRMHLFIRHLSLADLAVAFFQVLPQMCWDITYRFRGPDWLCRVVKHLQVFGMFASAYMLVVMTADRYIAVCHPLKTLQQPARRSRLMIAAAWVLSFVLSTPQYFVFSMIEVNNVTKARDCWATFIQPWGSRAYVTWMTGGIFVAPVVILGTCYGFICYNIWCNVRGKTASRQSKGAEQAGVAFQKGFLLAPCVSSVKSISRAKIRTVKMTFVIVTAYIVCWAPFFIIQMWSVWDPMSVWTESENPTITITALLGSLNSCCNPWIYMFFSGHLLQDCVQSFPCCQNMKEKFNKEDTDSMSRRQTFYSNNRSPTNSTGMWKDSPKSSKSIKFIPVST
T2 sequence (P30518 whole entry): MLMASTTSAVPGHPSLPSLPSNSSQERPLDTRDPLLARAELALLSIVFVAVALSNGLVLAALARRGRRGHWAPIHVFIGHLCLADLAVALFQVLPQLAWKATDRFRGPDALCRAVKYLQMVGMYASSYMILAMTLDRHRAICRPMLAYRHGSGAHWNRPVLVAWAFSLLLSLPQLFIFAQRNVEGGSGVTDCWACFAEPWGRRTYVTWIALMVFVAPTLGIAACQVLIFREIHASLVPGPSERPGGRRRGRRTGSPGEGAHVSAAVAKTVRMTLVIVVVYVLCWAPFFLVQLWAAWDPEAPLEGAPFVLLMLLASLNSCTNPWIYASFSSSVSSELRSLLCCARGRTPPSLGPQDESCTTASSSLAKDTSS

Structure (SMILES)	pIC50 (human V1a receptor)	ratio IC50 hV2/hV1a (human V1a receptor)	pIC50 (human V2 receptor)
NC(=O)c1cccnc1-n1nc(Cn2nc(-c3ccc(Cl)cc3)n(C[C@H](O)C(F)(F)F)c2=O)nc1C(N)=O [Example 9, 2-[5-carbamoyl-3-({3-(4-chlorophenyl)-5-oxo-4-[(2S)-3,3,3-trifluoro-2-hydroxypropyl]-4,5-dihydro-1H-1,2,4-triazol-1-yl}methyl)-1H-1,2,4-triazol-1-yl]nicotinamide]	7.12	30.0	5.65
NC(=O)c1nc(Cn2nc(-c3ccc(Cl)cc3)n(C[C@@H](O)C(F)(F)F)c2=O)nn1-c1ncccc1Cl [Example 10, 3-({3-(4-Chlorophenyl)-5-oxo-4-[(2R)-3,3,3-trifluoro-2-hydroxypropyl]-4,5-dihydro-1H-1,2,4-triazol-1-yl}methyl)-1-(3-chloropyridin-2-yl)-1H-1,2,4-triazole-5-carboxamide]	8.17	–	6.10
NC(=O)c1nc(Cn2nc(-c3ccc(Cl)cc3)n(C[C@@H](O)C(F)(F)F)c2=O)nn1-c1ncccc1C(F)(F)F [Example 11, 3-({3-(4-Chlorophenyl)-5-oxo-4-[(2R)-3,3,3-trifluoro-2-hydroxypropyl]-4,5-dihydro-1H-1,2,4-triazol-1-yl}methyl)-1-[3-(trifluoromethyl)pyridin-2-yl]-1H-1,2,4-triazole-5-carboxamide]	8.51	–	6.21
NC(=O)c1nc(Cn2nc(-c3ccc(Cl)cc3)n(CC(=O)C(F)(F)F)c2=O)nn1-c1ncccc1Cl [Example 14, 3-{[3-(4-Chlorophenyl)-5-oxo-4-(3,3,3-trifluoro-2-oxopropyl)-4,5-dihydro-H-1,2,4-triazol-1-yl]methyl}-1-(3-chloropyridin-2-yl)-1H-1,2,4-triazole-5-carboxamide]	8.28	20.0	6.98
NC(=O)c1nc(Cn2nc(-c3ccc(Cl)cc3)n(C[C@@H](O)C(F)(F)F)c2=O)nn1-c1cnccc1C(F)(F)F [Example 13, 3-({3-(4-Chlorophenyl)-5-oxo-4-[(2R)-3,3,3-trifluoro-2-hydroxypropyl]-4,5-dihydro-H-1,2,4-triazol-1-yl}methyl)-1-[4-(trifluoromethyl)pyridin-3-yl]-1H-1,2,4-triazole-5-carboxamide]	8.80	–	6.16
NC(=O)c1nc(Cn2nc(-c3ccc(Cl)cc3)n(CC(=O)C(F)(F)F)c2=O)nn1-c1ncccc1C(F)(F)F [Example 17, 3-{[3-(4-Chlorophenyl)-5-oxo-4-(3,3,3-trifluoro-2-oxopropyl)-4,5-dihydro-H-1,2,4-triazol-1-yl]methyl}-1-[3-(trifluoromethyl)pyridin-2-yl]-1H-1,2,4-triazole-5-carboxamide]	–	66.0	–
NC(=O)c1nc(Cn2nc(-c3ccc(Cl)cc3)n(C[C@@H](O)C(F)(F)F)c2=O)nn1-c1cnccc1Cl [Example 12, 3-({3-(4-Chlorophenyl)-5-oxo-4-[(2R)-3,3,3-trifluoro-2-hydroxypropyl]-4,5-dihydro-H-1,2,4-triazol-1-yl}methyl)-1-(4-chloropyridin-3-yl)-1H-1,2,4-triazole-5-carboxamide]	8.46	–	6.07
NC(=O)c1nc(Cn2nc(-c3ccc(Cl)cc3)n(C[C@H](O)C(F)(F)F)c2=O)nn1-c1cnccc1Cl [Example 6, 3-({3-(4-Chlorophenyl)-5-oxo-4-[(2S)-3,3,3-trifluoro-2-hydroxypropyl]-4,5-dihydro-1H-1,2,4-triazol-1-yl}methyl)-1-(4-chloropyridin-3-yl)-1H-1,2,4-triazole-5-carboxamide]	9.24	–	7.60
NC(=O)c1nc(Cn2nc(-c3ccc(Cl)cc3)n(C[C@H](O)C(F)(F)F)c2=O)nn1-c1ncccc1Br [Example 4, 1-(3-Bromopyridin-2-yl)-3-({3-(4-chlorophenyl)-5-oxo-4-[(2S)-3,3,3-trifluoro-2-hydroxypropyl]-4,5-dihydro-1H-1,2,4-triazol-1-yl}methyl)-1H-1,2,4-triazole-5-carboxamide]	8.91	–	7.05
CCOC(=O)c1ccncc1-n1nc(Cn2nc(-c3ccc(Cl)cc3)n(C[C@H](O)C(F)(F)F)c2=O)nc1C(N)=O [Example 8, Ethyl 3-[5-carbamoyl-3-({3-(4-chlorophenyl)-5-oxo-4-[(2S)-3,3,3-trifluoro-2-hydroxypropyl]-4,5-dihydro-1H-1,2,4-triazol-1-yl}methyl)-1H-1,2,4-triazol-1-yl]isonicotinate]	7.59	35.0	6.05
NC(=O)c1nc(Cn2nc(-c3ccc(Cl)cc3)n(C[C@H](O)C(F)(F)F)c2=O)nn1-c1ncccc1Cl [Example 1, 3-({3-(4-Chlorophenyl)-5-oxo-4-[(2S)-3,3,3-trifluoro-2-hydroxypropyl]-4,5-dihydro-1H-1,2,4-triazol-1-yl}methyl)-1-(3-chloropyridin-2-yl)-1H-1,2,4-triazole-5-carboxamide]	8.99	–	7.41
NC(=O)c1nc(Cn2nc(-c3ccc(Cl)cc3)n(C[C@H](O)C(F)(F)F)c2=O)nn1-c1ncccc1C(F)(F)F [Example 2, 3-({3-(4-Chlorophenyl)-5-oxo-4-[(2S)-3,3,3-trifluoro-2-hydroxypropyl]-4,5-dihydro-1H-1,2,4-triazol-1-yl}methyl)-1-[3-(trifluoromethyl)pyridin-2-yl]-1H-1,2,4-triazole-5-carboxamide]	8.92	–	6.77
NC(=O)c1nc(Cn2nc(-c3ccc(Cl)cc3)n(CC(=O)C(F)(F)F)c2=O)nn1-c1ncccc1Br [Example 15, 1-(3-Bromopyridin-2-yl)-3-{[3-(4-chlorophenyl)-5-oxo-4-(3,3,3-trifluoro-2-oxopropyl)-4,5-dihydro-1H-1,2,4-triazol-1-yl]methyl}-1H-1,2,4-triazole-5-carboxamide]	7.87	–	6.20
NC(=O)c1nc(Cn2nc(-c3ccc(Cl)cc3)n(CC(=O)C(F)(F)F)c2=O)nn1-c1cnccc1Cl [Example 16, 3-{[3-(4-Chlorophenyl)-5-oxo-4-(3,3,3-trifluoro-2-oxopropyl)-4,5-dihydro-1H-1,2,4-triazol-1-yl]methyl}-1-(4-chloropyridin-3-yl)-1H-1,2,4-triazole-5-carboxamide]	8.85	–	7.12
NC(=O)c1nc(Cn2nc(-c3ccc(Cl)cc3)n(C[C@H](O)C(F)(F)F)c2=O)nn1-c1cnccc1C(F)(F)F [Example 7, 3-({3-(4-Chlorophenyl)-5-oxo-4-[(2S)-3,3,3-trifluoro-2-hydroxypropyl]-4,5-dihydro-1H-1,2,4-triazol-1-yl}methyl)-1-[4-(trifluoromethyl)pyridin-3-yl]-1H-1,2,4-triazole-5-carboxamide]	8.60	–	6.53
NC(=O)c1nc(Cn2nc(-c3ccc(Cl)cc3)n(C[C@H](O)C(F)(F)F)c2=O)nn1-c1ncccc1OC(F)(F)F [Example 3, 3-({3-(4-Chlorophenyl)-5-oxo-4-[(2S)-3,3,3-trifluoro-2-hydroxypropyl]-4,5-dihydro-1H-1,2,4-triazol-1-yl}methyl)-1-[3-(trifluoromethoxy)pyridin-2-yl]-1H-1,2,4-triazole-5-carboxamide]	7.80	–	6.06
CCOC(=O)c1cccnc1-n1nc(Cn2nc(-c3ccc(Cl)cc3)n(C[C@H](O)C(F)(F)F)c2=O)nc1C(N)=O [Example 5, Ethyl 2-[5-carbamoyl-3-({3-(4-chlorophenyl)-5-oxo-4-[(2S)-3,3,3-trifluoro-2-hydroxypropyl]-4,5-dihydro-1H-1,2,4-triazol-1-yl}methyl)-1H-1,2,4-triazol-1-yl]nicotinate]	7.84	–	5.90
